Assay results published in patent publication US8841276B2, “Fulvene and fulvalene analogs and their use in treating cancers” (Emory University, priority 2007, dated 2014).

How the values were obtained:
[1] = system: light-induced retinal function loss; parameters: species or system Balb-C mice; details: mouse, in vivo
Description: Balb-C mice were exposed to dim (20 lux) or bright (10,000 lux) white light for 6 hours. Mice were injected with Fulvene-5, a triphenylmethane that inhibits NADPH oxidase, dissolved in vehicle (intralipid-DMSO) or vehicle alone. Intraperitoneal injections were given daily for two weeks. Electroretinograms (ERGs) were taken 0, 7, and 14 days following light exposure. Mice were exposed to either dim light (control) or bright light of an intensity that causes retinal degeneration (Light Induced Retinal Degeneration; LIRD). This is a classic rodent model of retinal degeneration. For each lighting condition, half the animals were injected with vehicle and the other half were injected with Fulvene 5. Electroretinograms (ERGs) of the treated mice were measured at one week post-exposure. An ERG is a measure of the change in electrical potential across the eyeball in response to a flash of light, and is used as an indication of retinal function.

Nox2 enzyme = target: T1, Nox2 enzyme (Homo sapiens, UniProt P04839); assay: Inhibition of Nox2 enzyme: H2O2 production in PMA-stimulated Cos-phox cells (homovanillic acid assay); type: cell-based; details: 1 μM, 5 μM, or 20 μM, FIG. 1
T1 construct: expressed in transfected cells; host or cells: Cos-phox cells (COS-7 derived, per the cited Price et al. 2002; own knowledge)
T1 sequence (P04839 2-570 limits assumed): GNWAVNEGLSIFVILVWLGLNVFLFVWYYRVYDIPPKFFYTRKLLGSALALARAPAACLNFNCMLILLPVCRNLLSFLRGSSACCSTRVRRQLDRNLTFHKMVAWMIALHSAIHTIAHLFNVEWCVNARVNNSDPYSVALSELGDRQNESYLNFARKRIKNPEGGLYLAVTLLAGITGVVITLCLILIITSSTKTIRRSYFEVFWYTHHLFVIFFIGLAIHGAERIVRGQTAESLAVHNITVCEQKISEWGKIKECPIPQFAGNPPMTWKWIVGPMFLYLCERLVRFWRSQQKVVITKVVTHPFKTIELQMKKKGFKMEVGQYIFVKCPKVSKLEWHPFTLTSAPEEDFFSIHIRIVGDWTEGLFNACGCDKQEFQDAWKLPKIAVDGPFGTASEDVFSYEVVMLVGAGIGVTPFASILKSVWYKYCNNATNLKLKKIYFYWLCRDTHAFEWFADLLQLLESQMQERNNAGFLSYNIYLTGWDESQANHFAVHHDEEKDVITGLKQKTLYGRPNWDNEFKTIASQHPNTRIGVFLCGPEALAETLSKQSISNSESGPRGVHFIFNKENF
T1 sequence (P13498 2-195 partner limits assumed): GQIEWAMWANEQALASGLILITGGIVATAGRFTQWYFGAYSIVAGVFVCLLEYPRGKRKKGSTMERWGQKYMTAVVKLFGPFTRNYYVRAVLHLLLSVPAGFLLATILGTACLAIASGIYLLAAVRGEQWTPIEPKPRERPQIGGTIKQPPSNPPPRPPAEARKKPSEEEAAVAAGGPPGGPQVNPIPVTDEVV
Description: Various test compounds were examined for activity against Nox2 enzyme by determining hydrogen peroxide (H2O2) production in phorbol 12-myristate 13-acetate (PMA)-stimulated Cos-phox cells treated with different concentrations of vehicle control or a test compound listed in Table 1.
Cos-phox cells have been described previously in Price et al., Blood, 99: 2653-61 (2002), which is incorporated herein by reference.
H2O2 release was measured using the homovanillic acid assay as described previously in Martyn et al., Cellular Signalling, 18:69-82 (2006) and Perry et al., J. Invest. Dermatol., 126:2316-22 (2006), which are incorporated herein by reference. Briefly, 1.5-1.75×10^5 cells/well of a 12-well plate were seeded with Cos-phox cells. The following day, cells were washed once with Hank's balanced salt solution, stimulated with […] phorbol 12-myristate 13-acetate (PMA), and then preincubated for 15 minutes with either vehicle control or different concentrations (i.e., 1 μM, 5 μM, or 20 μM) of test compound no. 8, 10, 15, 16, 17, or 18 in 1 ml of media. The cells were then washed once with Hank's balanced salt solution. Vehicle control or different concentrations of test compound no. […] Fluorescence was read on a BioTek Synergy HT (BioTek Instruments Inc., Winooski, Vt., CA) with an excitation of 320 nm and emission of 440 nm. […]

Structure (SMILES) | Suppression of ERG b-wave amplitude [1] | Effect of bright light exposure on retinal function as measured by ERG ([1]; ip) | Inhibition of Nox2 enzyme (production of H2O2 relative to untreated control) (Nox2 enzyme)
Cc1[nH]cnc1C=C1C=CC=C1 [Test compound 10, 4-(cyclopenta-2,4-dienylidinemethyl)-5-methyl-1H-imidazole] | no suppression of ERG amplitude | precluded the damaging effects of bright light exposure on retinal function | –
CN(C)C=C1C=CC=C1 [compound 8] | – | – | inhibited Nox2 enzyme in a dose-dependent manner
